Data reported in ChEMBL document CHEMBL1133885, “A short synthesis of argatroban. a potent selective thrombin inhibitor” (Bioorg Med Chem Lett, 2001).

Assay: Concentration required for 50% inhibition of thrombin induced platelet aggregation
Assay type: functional

Compound `C[C@@H]1CCN(C(=O)[C@H](CCCNC(=N)N)NS(=O)(=O)c2cccc3c2NC[C@H](C)C3)[C@@H](C(=O)O)C1` [ARGATROBAN] has an IC50 of 9 nM.
